A word on the IC50: it is the concentration needed to halve the response being measured.

Each structure is given as a SMILES string.

The results in this text go back to patent publication US9771378B2 (Denali Therapeutics, Inc., priority 2014, dated 2017).

The experiment deals with Aβ42 (human neuroglioma H4 cells expressing human wild type APP751). Put plainly: In vitro cell screening assay with sandwich ELISA quantification of Aβ42 peptide. In kind it is cell-based. The settings on record: H4 cells stably expressing human wild type APP751; Pro293 chemically defined medium; compounds 0.003-10 μM; incubated overnight (16-18 h); supernatant Aβ42 by sandwich ELISA; normalized to DMSO and DAPT; read-out: Aβ42 H4 Prot Fre IC50. In a few lines: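 Aβ42 in supernatants was quantified by sandwich ELISA with C-terminal-specific capture and 4G8-HRP detection, absorbance at 450 nm. Stable APP751-expressing human H4 cells received compound at 0.003-10 μM (0.33% DMSO) overnight (16-18 h). IC50 was derived from percent-of-DMSO-control data by nonlinear variable-slope fit.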
Consider `COc1ccc(Cl)c(C2COc3cnc(Nc4ccc(-n5cnc(C)c5)c(OC)c4)nc3N2C)c1` (racemic) [Example 87], for which the IC50 was 42 nM.

`COc1cc(Nc2ncc3c(n2)N(C)C(c2cc(F)cc(F)c2)CO3)ccc1-n1cnc(C)n1` (single isomer, unassigned; (-)) [Example 244B]: the IC50 was 935 nM.

`COc1cc(Nc2ncc3c(n2)N2CCOC[C@H]2CO3)ccc1-n1cnc(C)c1` [Example 295]: the IC50 was determined as 496 nM.

`COc1cc(Nc2ncc3c(n2)N2CCC[C@@]2(C)CO3)ccc1-n1cnc(C)c1` [Example 291, (S)-N-(3-methoxy-4-(4-methyl-1H-imidazol-1-yl)phenyl)-6a-methyl-6a, 7,8,9-tetrahydro-6H-pyrimido [5,4-b] pyrrolo [1,2-d] [1, 4] oxazin-2-amine]: the IC50 worked out at 131 nM.

Turning to `COc1cc(Nc2ncc3c(n2)N(C)[C@H](c2ccccc2)CO3)ccc1-c1ccnc(C)c1` [Example 22B, (R)—N-(3-methoxy-4-(2-methylpyridin-4-yl)phenyl)-8-methyl-7-phenyl-7,8-dihydro-6H-pyrimido[5,4-b][1,4]oxazin-2-amine], the IC50 is 168 nM.

For the compound `COc1ccc(C2COc3cnc(Nc4cnc(-n5cnc(C)c5)c(OC)c4)nc3N2C)c(Cl)c1` (single isomer, unassigned; (+)) [Example 209A], the IC50 was 21 nM.

Consider `COc1cc(Nc2ncc3c(n2)N(C)C(C(F)(F)F)CO3)cnc1-n1cnc(C)c1` (single isomer, unassigned; (-)) [Example 193B], for which the IC50 was found to be 35 nM.

Take `COc1cc(Nc2ncc3c(n2)N(C)C(C(F)(F)F)CO3)ccc1C#N` (single isomer, unassigned; (-)) [Example 230B, (−)-2-methoxy-4-((8-methyl-7-(trifluoromethyl)-7,8-dihydro-6H-pyrimido [5,4-b] [1, 4]oxazin-2-yl)amino) benzonitrile]: the IC50 was 717 nM.

For `COc1cc(Nc2ncc3c(n2)N(C)C(C2CCS(=O)(=O)CC2)CO3)ccc1-n1cnc(C)c1` (single isomer, unassigned; (+)) [Example 239B, (+)-4-(2-((3-methoxy-4-(4-methyl-1H-imidazol-1-yl)phenyl)amino)-8-methyl-7,8-dihydro-6H-pyrimido [5,4-b] [1, 4]oxazin-7-yl) tetrahydro-2H-thiopyran 1,1-dioxide], the IC50 worked out at 380 nM.

On to `COC[C@H]1COc2cnc(Nc3ccc(-n4cnc(C)c4)c(F)c3)nc2N1C` [Example 113], for which the half-inhibitory concentration (IC50) is 331 nM.

As to `COc1cc(Nc2ncc3c(n2)N(C)C(CC(F)(F)F)CO3)cnc1-n1cnc(C)c1` (single isomer, unassigned; (+)) [Example 238B], the IC50 came to 66 nM.

Regarding `COc1cc(Nc2ncc3c(n2)N(C)C(c2ccc(Cl)cc2Cl)CO3)ccc1-n1cnc(C)c1` (single isomer, unassigned; (-)) [Example 95A], the IC50 came out at 116 nM.

In the case of `Cc1cn(-c2ccc(Nc3ncc4c(n3)N(C)C(c3ccc(F)cc3Cl)CO4)cc2F)cn1` (single isomer, unassigned; (-)) [Example 101B], the IC50 was found to be 685 nM.

With `Cc1cc(-c2ccc(Nc3ncc4c(n3)N(C)C(c3ccccc3C)CO4)cc2F)ccn1` (single isomer, unassigned; (-)) [Example 32A], the IC50 turned out to be 888 nM.

For the compound `COc1ccc(C)c(C2COc3cnc(Nc4ccc(-n5cnc(C)c5)c(OC)c4)nc3N2C)c1` (single isomer, unassigned; (+)) [Example 175A], the IC50 turned out to be 11 nM.

For the compound `COc1cc(Nc2ncc3c(n2)N(C)C(c2ccccc2)CO3)ccc1-n1cnc(C)c1` (racemic) [Example 45, N-(3-methoxy-4-(4-methyl-1H-imidazol-1-yl)phenyl)-8-methyl-7-phenyl-7,8-dihydro-6H-pyrimido[5,4-b][1,4]oxazin-2-amine], the IC50 is 58 nM.

Take `Cc1cn(-c2ccc(Nc3ncc4c(n3)N3CCCC3CO4)cc2F)cn1` (single isomer, unassigned; (-)) [Example 289B]: the IC50 was 157 nM.

As to `Cc1cc(-c2ccc(Nc3ncc4c(n3)N(C)C(Cc3ccccc3)CO4)cc2F)ccn1` (single isomer, unassigned; (+)) [Example 57A], the IC50 came out at 118 nM.

Turning to `COc1cc(Nc2ncc3c(n2)N(C)C(c2cc(F)c(F)c(F)c2)CO3)ccc1-c1ccnc(C)c1` (single isomer, unassigned; (+)) [Example 39A], the IC50 came to 41 nM.

As to `Cc1cn(-c2ccc(Nc3ncc4c(n3)N(C)C(C)CO4)cc2C(F)F)cn1` (single isomer, unassigned; (+)) [Example 214A], the IC50 is above 3000 nM.

Consider `Cc1cn(-c2ccc(Nc3ncc4c(n3)N(C)C(c3ccc(F)cc3)CO4)cc2F)cn1` (single isomer, unassigned; (-)) [Example 58B], for which the IC50 came to 1950 nM.

Regarding `COc1cc(Nc2ncc3c(n2)N(C)C(C2(C(F)(F)F)CC2)CO3)cnc1-n1cnc(C)c1` (single isomer, unassigned; (-)) [Example 247A], the IC50 worked out at 252 nM.

Consider `COc1cc(Nc2ncc3c(n2)N2CC(F)(F)C[C@H]2CO3)ccc1-n1cnc(C)c1` [Example 297, (S)-8,8-difluoro-N-(3-methoxy-4-(4-methyl-1H-imidazol-1-yl)phenyl)-6a, 7,8,9-tetrahydro-6H-pyrimido [5,4-b] pyrrolo [1,2-d] [1, 4] oxazin-2-amine], for which the IC50 was found to be 99 nM.

As to `Cc1cn(-c2ccc(Nc3ncc4c(n3)N(C)C(c3ccccc3C)CO4)cc2F)cn1` (racemic) [Example 34], the IC50 came to 44 nM.

As to `Cc1cn(-c2ccc(Nc3ncc4c(n3)N(C)C(C(F)(F)F)CO4)cc2C#N)cn1` (single isomer, unassigned; (+)) [Example 232A, (+)-2-(4-methyl-1H-imidazol-1-yl)-5-((8-methyl-7-(trifluoromethyl)-7,8-dihydro-6H-pyrimido [5,4-b] [1, 4]oxazin-2-yl)amino) benzonitrile], the IC50 was 280 nM.

For the compound `Cc1cc(-c2ccc(Nc3ncc4c(n3)N(C)C(c3cc(F)c(F)c(F)c3)CO4)cc2)ccn1` (racemic) [Example 37], the IC50 worked out at 103 nM.

`COc1cc(Nc2ncc3c(n2)N(C)C(C)(C)CO3)ccc1-n1cnc(C)c1` [Example 254]: the IC50 came to 54 nM.

For the compound `COc1cc(Nc2ncc3c(n2)N(C)C(c2ccccc2C(F)(F)F)CO3)ccc1-c1ccnc(C)c1` (single isomer, unassigned; (+)) [Example 70B], the IC50 was determined as 151 nM.

As for `COc1cc(Nc2ncc3c(n2)N(C)C(Cc2ccccc2)CO3)ccc1-n1cnc(C)c1` (single isomer, unassigned; (-)) [Example 47B], the IC50 came out at 65 nM.

For the compound `COc1cc(Nc2ncc3c(n2)N(C)C2(CO3)CC(F)(F)C2)ccc1-n1cnc(Cl)c1` [Example 277], the IC50 amounted to 97 nM.

Turning to `Cc1cn(-c2ccc(Nc3ncc4c(n3)N(C)C(C)CO4)cc2C(F)F)cn1` (single isomer, unassigned; (-)) [Example 214B], the IC50 worked out at 2260 nM.

In the case of `COc1ccc(C2COc3cnc(Nc4cnc(-n5cnc(C)c5)c(OC)c4)nc3N2C)c(Cl)c1` (single isomer, unassigned; (-)) [Example 209B], the IC50 was determined as 55 nM.

In the case of `COc1cc(Nc2ncc3c(n2)N(C)C(c2ccccc2C)CO3)ccc1-c1ccnc(C)c1` (single isomer, unassigned; (-)) [Example 35A], the IC50 turned out to be 355 nM.

In the case of `Cc1cc(-c2ccc(Nc3ncc4c(n3)N(C)C(c3ccccc3C)CO4)cc2)ccn1` (single isomer, unassigned; (+)) [Example 29B], the IC50 was 68 nM.

On to `Cc1cn(-c2ccc(Nc3ncc4c(n3)N(C)C3(CCCC3)CO4)nc2)cn1` [Example 263], for which the IC50 was above 3000 nM.

As to `COc1cc(Nc2ncc3c(n2)N(C)C(C(F)(F)F)CO3)ncc1-n1cnc(C)c1` (single isomer, unassigned; (-)) [Example 236B], the IC50 is 245 nM.

`COc1cc(Nc2ncc3c(n2)N2CC(F)(F)C[C@@H]2CO3)ccc1-n1cnc(C)c1` [Example 303, (R)-8,8-difluoro-N-(3-methoxy-4-(4-methyl-1H-imidazol-1-yl)phenyl)-6a, 7,8,9-tetrahydro-6H-pyrimido [5,4-b] pyrrolo [1,2-d] [1, 4] oxazin-2-amine]: the IC50 turned out to be 131 nM.

Regarding `Cc1cn(-c2ncc(Nc3ncc4c(n3)N(C)C(c3cc(F)cc(F)c3)CO4)cc2Cl)cn1` (single isomer, unassigned; (+)) [Example 210A], the IC50 worked out at 41 nM.

For `COc1cc(Nc2ncc3c(n2)N(C)[C@@H](C2CC2)CO3)ccc1-n1cnc(C)c1` [Example 224], the IC50 stood at 22 nM.

As for `COc1cc(Nc2ncc3c(n2)N(C)C(C(F)(F)F)CO3)ncc1-n1cnc(C)c1` (single isomer, unassigned; (+)) [Example 236A], the IC50 was above 3000 nM.

In the case of `Cc1cc(-c2ccc(Nc3ncc4c(n3)N(C)C(c3ccccc3)CO4)cc2F)ccn1` (single isomer, unassigned; (-)) [Example 27B], the IC50 was found to be 2100 nM.

As for `COc1cc(Nc2ncc3c(n2)N(C)C(c2cc(F)cc(F)c2)CO3)ccc1-c1ccnc(C)c1` (single isomer, unassigned; (+)) [Example 42A], the IC50 came out at 36 nM.

For the compound `COc1cc(Nc2ncc3c(n2)N(C)C(c2cc(C(F)(F)F)ccc2Cl)CO3)ccc1-n1cnc(C)c1` (single isomer, unassigned; (+)) [Example 88A], the IC50 was determined as 37 nM.

Turning to `COc1cc(Nc2ncc3c(n2)N(C)[C@@H](COc2ccccc2)CO3)ccc1-n1cnc(C)c1` [Example 200], the IC50 came out at 30 nM.

Regarding `Cc1cc(-c2ccc(Nc3ncc4c(n3)N(C)C(c3ccccc3)CO4)cc2F)ccn1` (single isomer, unassigned; (+)) [Example 27A], the IC50 was determined as 306 nM.

On to `COc1cc(Nc2ncc3c(n2)N(C)C(c2cc(F)cc(F)c2)CO3)ccc1-n1cnc(Cl)c1` (single isomer, unassigned; (+)) [Example 204B], for which the IC50 turned out to be 19 nM.
